According to patent publication US3966718A, “7-β-Acylamino-ceph-3-ems and salts and esters therefor” (Beecham Group Limited, priority 1973, dated 1976):
Values after ≈ are worked out from the molar mass of the structure shown. Structures can show the parent of a compound that is named as a salt. Where two headings read alike, the source gives them in different places.

Columns and labels:
Format in all cases: cell-based
[1] = system: B. subtilis; assay: MIC on (nutrient) agar; conditions: Bacillus subtilis; B. subtilis, agar; read-out: minimum inhibitory concentration (MIC)
[2] = system: Staph. aureus Oxford; assay: MIC on (nutrient) agar; conditions: Staphylococcus aureus, read-out: minimum inhibitory concentration (MIC)
[3] = system: Staph. aureus Russell; assay: MIC on (nutrient) agar; conditions: Staphylococcus aureus, read-out: minimum inhibitory concentration (MIC)
[4] = system: β-Haemolytic Strep. CN10; assay: MIC on (nutrient) agar; conditions: β-Haemolytic Strep. CN10, agar; read-out: minimum inhibitory concentration (MIC)
[5] = system: Strep. pneumoniae CN33; assay: MIC on (nutrient) agar; conditions: Streptococcus pneumoniae, read-out: minimum inhibitory concentration (MIC)
[6] = system: E. coli NCTC 10418; assay: MIC on nutrient agar; conditions: Escherichia coli, NCTC10418; E. coli NCTC 10418, nutrient agar; read-out: minimum inhibitory concentration (MIC)
[7] = system: Salmonella typhi; assay: MIC on nutrient agar; conditions: Salmonella enterica, read-out: minimum inhibitory concentration (MIC)
[8] = system: Shigella sonnei; assay: MIC on nutrient agar; conditions: read-out: minimum inhibitory concentration (MIC)
[9] = system: Klebsiella aerogenes A; assay: MIC on nutrient agar; conditions: Klebsiella aerogenes A, nutrient agar; read-out: minimum inhibitory concentration (MIC)
[10] = system: Proteus mirabilis C977; assay: MIC on nutrient agar; conditions: Proteus mirabilis C977, nutrient agar; read-out: minimum inhibitory concentration (MIC)

| SMILES | MIC [1] [µg/mL] | MIC [2] [µg/mL] | MIC ([3]; Staph. aureus Russell, agar) [µg/mL] | MIC [4] [µg/mL] | MIC [5] [µg/mL] | MIC [6] [µg/mL] | MIC [7] [µg/mL] | MIC [8] [µg/mL] | MIC [9] [µg/mL] | MIC [10] [µg/mL] | MIC [3] [µg/mL] |
| --- | --- | --- | --- | --- | --- | --- | --- | --- | --- | --- | --- |
| O=C(O)C1=C(Cc2cccnc2)CS[C@@H]2[C@H](NC(=O)[C@H](NC(=O)N3CCNC3=O)c3ccccc3)C(=O)N12 [Example 8, 7β-[D-2-(1-imidazolidonecarbonylamino)phenylacetamido]-3(3-pyridylmethyl)-3-cephem-4-carboxylic acid trifluoroacetic acid salt] | 1.25 | 0.25 | 12.5 | 0.12 | 0.25 | 25 | 25 | 25 | 12.5 | 50 |  |
| N=C(N)N[C@@H](C(=O)N[C@@H]1C(=O)N2C(C(=O)O)=C(Cc3cccnc3)CS[C@H]12)c1ccccc1 [Example 11, 7β(Dα-guanidinophenylacetamido)-3(3-pyridylmethyl)-3-cephem-4-carboxylic acid di-trifluoroacetic acid salt] | 2.5 | 0.5 | 2.5 | 0.1 | 0.1 | > 100 | > 100 | > 100 | > 100 | > 100 |  |
| N[C@@H](C(=O)N[C@@H]1C(=O)N2C(C(=O)O)=C(Cc3ccccn3)CS[C@H]12)c1ccccc1 [Example 7, 7β(Dα-aminophenylacetamido)-3(2-pyridylmethyl)-3-cephem-4-carboxylic acid di-trifluoroacetate] | 1.25 (≈ 2.94 µM) | 1.25 (≈ 2.94 µM) |  | 1.25 (≈ 2.94 µM) |  | 50 (≈ 118 µM) | 12.5 (≈ 29.4 µM) | 25 (≈ 58.9 µM) |  | 125 (≈ 294 µM) | 12.5 (≈ 29.4 µM) |
| O=C(O)C1=C(Cc2cccnc2)CS[C@@H]2[C@H](NC(=O)[C@H](O)c3ccccc3)C(=O)N12 [Example 3, 7β(D-α-hydroxyphenylacetamido)-3(3-pyridylmethyl)-3-cephem-4-carboxylic acid trifluoroacetate salt] | 0.12 | 0.25 | 12.5 | 0.25 | 0.5 | 2.5 | 2.5 | 2.5 | 2.5 | 5 |  |
| CCSCC(=O)N[C@@H]1C(=O)N2C(C(=O)O)=C(Cc3cccnc3)CS[C@H]12 [Example 10, 7β-ethylthioacetamido-3(3-pyridylmethyl)-3-cephem-4-carboxylic acid trifluoroacetic acid salt] | 0.5 | 0.05 | 1.25 | 0.12 | 0.25 | 50 | 50 | 50 | 50 | 25 |  |
| N[C@@H](C(=O)N[C@@H]1C(=O)N2C(C(=O)O)=C(Cc3cccnc3)CS[C@H]12)c1ccccc1 [Example 4, 7β(D-α-aminophenylacetamido)-3(3-pyridylmethyl)-3-cephem-4-carboxylic acid di-trifluoroacetate salt] | 0.25 | 0.25 | 2.5 | 0.25 | 0.5 | 2.5 | 1.25 | 2.5 | 2.5 | 5 |  |
| C[n+]1cccc(CC2=C(C(=O)O)N3C(=O)[C@@H](NC(=O)[C@H](O)c4ccccc4)[C@H]3SC2)c1 [Example 5, 7β(D-α-hydroxyphenylacetamide)-3(3-pyridylmethyl)-3-cephem-4-carboxylic acid metho-trifluoroacetate] | 0.25 | 0.12 | 5 | 0.02 | 0.12 | 50 | 50 | 50 | 50 | 125 |  |
